From US5276054A, “Substituted hexahydrobenzopyran derivatives as angiotensin II antagonists” (Merck & Co., Inc., priority 1992, dated 1994) come the findings set out here.

pIC50: −log10 of the molar value. Where “and” joins values, the source holds several entries; their conditions need not be identical. Equal values may be shown once.

Experiment [1] addresses T1, angiotensin II receptor, site 2 (AT-2 receptor) (Rattus norvegicus, UniProt P35351).
T1 construct: Adrenal membranes for the receptor assay were readied first by placing cleaned, whole adrenal glands in microcentrifuge tubes; from tissue; host or cells: rat adrenal glands (whole), membranes
T1 sequence (P35351 1-363): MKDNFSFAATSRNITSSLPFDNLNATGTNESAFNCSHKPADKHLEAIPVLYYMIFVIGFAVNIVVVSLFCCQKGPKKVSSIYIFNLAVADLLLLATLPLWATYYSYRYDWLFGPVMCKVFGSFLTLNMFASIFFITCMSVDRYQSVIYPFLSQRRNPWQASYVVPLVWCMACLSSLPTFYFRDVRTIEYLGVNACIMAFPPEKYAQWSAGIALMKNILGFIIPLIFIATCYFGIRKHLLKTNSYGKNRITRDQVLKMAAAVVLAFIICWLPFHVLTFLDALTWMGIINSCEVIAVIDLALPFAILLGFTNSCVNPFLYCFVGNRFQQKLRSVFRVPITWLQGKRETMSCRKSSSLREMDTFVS
As to the kind of experiment: Receptor assay using rat adrenal gland preparation (125I-Angiotensin II binding), site 2. From the text:
Angiotensin II (AII) is a powerful arterial vasoconstrictor, and it exerts its action by interacting with specific receptors present on cell membranes. The compounds of the present invention are competitive antagonists of AII at receptor sites. The usefulness of compounds as AII antagonists may be determined from the results of certain receptor binding assays. The initial assay is that using rat adrenal glands and the results of this assay are described herein.
Receptor assay using rat adrenal gland preparation
Adrenal membranes for the receptor assay were readied first by placing cleaned, whole adrenal glands in microcentrifuge tubes (20 glands per tube), and freezing and storing under liquid nitrogen. As needed, a microcentrifuge tube of adrenal glands was homogenized in 20 ml 50 mM Tris-HCl pH 7.7 and centrifuged at 20,000 rpm for 15 minutes at 4° C. […]
For the assay, the adrenal membrane preparation in one vial was resuspended in 30 ml of 100 mM Tris-HCl pH 7.4 with 5 mM MgCl2, 0.2% bovine serum albumin and 0.2 mg/ml bacitracin. […] The vials are counted with a gamma counter for one minute and percent inhibition determined from counts/min (CPM) as follows: [formula] The IC50 is determined by plotting percent inhibition v. concentration of compound tested.

The target in experiment [2] is T2, angiotensin II receptor, site 1 (Oryctolagus cuniculus, UniProt P34976).
T2 construct: tissue Pel-Freeze Biologicals; host or cells: rabbit aorta, membranes
T2 sequence (P34976 1-359): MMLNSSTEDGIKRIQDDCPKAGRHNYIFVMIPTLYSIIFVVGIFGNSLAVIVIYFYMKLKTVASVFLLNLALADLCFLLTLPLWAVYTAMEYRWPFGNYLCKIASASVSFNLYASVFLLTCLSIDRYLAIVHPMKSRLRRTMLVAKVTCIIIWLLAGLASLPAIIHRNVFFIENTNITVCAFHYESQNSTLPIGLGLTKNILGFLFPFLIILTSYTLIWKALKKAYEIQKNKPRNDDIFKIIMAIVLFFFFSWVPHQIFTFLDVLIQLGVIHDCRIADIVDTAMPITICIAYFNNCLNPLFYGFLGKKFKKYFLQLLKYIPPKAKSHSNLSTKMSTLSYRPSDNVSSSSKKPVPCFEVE
Nature of the experiment: Receptor binding assay using rabbit aortae membrane preparation (125I-Sar1 Ile8-angiotensin II), site 1. The following applies: rabbit aortae membranes, 37° C., 90 minutes. The protocol:
On positive results with rat adrenal gland assay, assays using rabbit aorta may be employed.
Receptor binding assay using rabbit aortae membrane preparation
Three frozen rabbit aortae (obtained from Pel-Freeze Biologicals) were suspended in 5 mM Tris-0.25M Sucrose, pH 7.4 buffer (50 mL) homogenized, and then centifuged. The mixture was filtered through a cheesecloth and the supernatant was centrifuged for 30 minutes at 20,000 rpm at 4° C. The pellet thus obtained was resuspended in 30 mL of 50 mM Tris-5 mM MgCl2 buffer containing 0.2% Bovine Serum Albumin and 0.2 mg/mL Bacitracin and the suspension was used for 100 assay tubes. Samples tested for screening were done in duplicate. To the membrane preparation (0.25 mL) there was added ^125 I-Sar^1 Ile^8 -angiotensin II [obtained from New England Nuclear] ([…]; 20,000 cpm) with or without the test sample and the mixture was incubated at 37° C. for 90 minutes. The mixture was then diluted with ice-cold 50 mM Tris-0.9% NaCl, pH 7.4 (4 mL) and filtered through a glass fiber filter (GF/B Whatman 2.4" diameter). The filter was soaked in scintillation cocktail (10 mL) and counted for radioactivity using Packard 2660 Tricarb liquid scintillation counter. […]

For the compound `CCCCCC1=C(C=O)C2OC(C)(C)C(O)CC23OC3C1=O` (stereo not drawn) [Compound A], the negative logarithm of the IC50 (pIC50) in experiment [1] (rat adrenal membranes, 37° C., 90 minutes, site 2) was 5.49 to 5.79 and 5.70 to 6.00; in experiment [2], 4.59. Also, in experiment [1] (statement in words), the “antagonist activity at AT-2 receptor sites” value is on record as “antagonist activity at AT-2 receptor sites”.
